According to article PMC12518639, “Apomorphine is a novel necroptosis inhibitor targeting mixed lineage kinase domain-like protein oligomerization” (Cell Death Discovery, 2025):

How the values were obtained:
THP-1-HMGB1-Lucia cells = assay: TBZ-induced necroptosis screening by HMGB1-luciferase release; assay type: cell-based, human; settings: Homo sapiens; 20 μM compound with TBZ, 8 h; TBZ alone = 100, DPBS = 0; read-out: % Inhibition (luciferase activity relative to TBZ-treated supernatant)
Experimental: To identify potential inhibitors of the necroptosis pathway targeting MLKL or the process of p-MLKL pore formation on the membrane, we screened a library of 2150 compounds, including FDA-approved drugs and those in phase 1–3 clinical trials, using THP-1-HMGB1-Lucia™ cells expressing the HMGB1-luciferase fusion protein. The cells were treated with a necroptosis-inducing mixture containing TNF-α, BV6, and Z-VAD-FMK (TBZ) in addition to the compound library (Fig. 1A). The supernatants were harvested to measure luciferase activities for necroptosis. The luciferase activities of cell supernatants treated with TBZ alone were considered as the maximum release (100%) of HMGB1-luciferase. NEC-1, a known RIP1 inhibitor used in both humans and mice, was used as a positive control. […] Next, we performed a propidium iodide (PI) uptake assay to exclude cytotoxic compounds using THP-1 cells. Then, we selected candidate molecules that were arbitrarily less than 30% of those treated with TBZ. […] Next, the inhibition levels of p-MLKL were tested to select MLKL-targeting molecules (Figs. 1C and S1A). Compounds that reduced p-MLKL levels to less than 30% of TBZ-treated controls were considered as potential inhibitors of MLKL phosphorylation. Conversely, compounds that maintained p-MLKL levels above 70% were selected because they are presumed to prevent the formation of pores in the plasma membrane by interfering with oligomerization.
A clinical chemical library containing 2150 items (Korea Chemical Bank, South Korea), under phase 1–3 clinical trials, including FDA-approved drugs, was used to screen for necroptosis inhibitors. Each chemical was dissolved in DMSO and diluted to 20 μM in DPBS for treatment.
THP-1-HMGB1-Lucia^TM cells were pretreated with the pan-caspase inhibitor Z-VAD-FMK (50 μM, tlrl-vad, InvivoGen) and each chemical for 1 h, and followed by TNF-α (100 ng/mL, TNF0501, NKMAXBio, Seongnam, S. Korea) and Smac mimetic BV6 (10 μM, B1332-5, Biovision, Santa Clara, CA, USA), termed TBZ mixture, were added for necroptosis screening. The RIP1 inhibitor, NEC-1 (1846, Biovision), and MLKL inhibitor, NSA (432531-71-0, Sigma-Aldrich, St. Louis, MO, USA), were used as controls. The cell supernatant was harvested to measure HMGB1 levels using a luciferase assay kit (E1500, Promega, Madison, WI, USA) by a luminometer (Centro XS3 LB 960, Berthold Technologies, Bad Wildbad, Germany). The inhibition of necroptosis (%) was calculated as: (sample-treated data – medium-only data) × 100/(TBZ-treated data – medium-only data). APO [STK088477, (6aS)-6-methyl-5,6,6a,7-tetrahydro-4H-dibenzo[de,g]quinoline-10,11-diol, Vitas-M Laboratory, Hong Kong] was stored at −70 °C after aliquoting with DMSO. APO was used after dilution in DPBS. APO is susceptible to auto-oxidation in solution in the presence of light and air. DPBS containing 5 mM DTT was used for Re-APO. Ox-APO was prepared by incubating APO in DPBS at 25 °C for 24 h in the presence of light and air, followed by removal of any precipitate by filtration through 0.2 μm.

[1] = target: T1, Nt-hMLKL^R145A/R146A/F148A/M150A (Homo sapiens, UniProt Q8NB16, F148A/M150A/R145A/R146A); assay: SPR binding to Nt-hMLKL quadruple mutant; settings: CM5 chip
T1 construct: an N-terminal domain (Nt-hMLKL, amino acids 2–154, MW: 23 kDa) involved in oligomerization; His (N); made in house; host or cells: E. coli BL21
From the text: The hMLKL plasmid (RC213152, OriGene, Rockville, MD, USA), and recombinant Wt-hMLKL (ab241453, Abcam) and Wt-mMLKL (MBS1379843, MyBioSource, San Diego, CA, USA) proteins were purchased. Nt-hMLKL (2–154), Nt-mMLKL (1–180), and Ct-hMLKL (183–471) were generated using the pBT7-N-His vector. Nt-hMLKL^C86A, Nt-hMLKL^F148A, -hMLKL^C86A/L89A/D94A, and Nt-hMLKL^R145A/R146A/F148A/M150A were generated using the Site-directed Mutagenesis Kit (EZ004S, Enzynomics, S. Korea). These constructs were subcloned into pBT7-N-His and pET-15b plasmid vectors. E. coli BL21 cells transformed with the cloned expression vectors were cultured in LB medium and supplemented with 100 μg/mL ampicillin until an OD at 600 nm of 0.5–0.6 was reached. The cultures were induced by 1 mM IPTG (367-93-1, Sigma-Aldrich). The cells were lysed and centrifuged. The clear supernatants were subjected to Ni-NTA affinity chromatography (175018169, QIAGEN, Hilden, Germany). Plasmids encoding mMLKL (1–464)–gyrase fusion constructs were kindly provided by Prof. […]
The interactions of Wt-hMLKL, Wt-mMLKL, Nt-mMLKL, Nt, and Ct-hMLKL proteins with Re-APO or Ox-APO were detected through SPR analysis using Biacore™ T200 (Cytiva, Marlborough, MA, USA). […] Sensorgrams were recorded and analyzed in real-time using the control software in the BIAcore T200 system. All data were analyzed using the BIA evaluation software (Cytiva).

T1 sequence (Q8NB16 2-154 R145A/R146A/F148A/M150A): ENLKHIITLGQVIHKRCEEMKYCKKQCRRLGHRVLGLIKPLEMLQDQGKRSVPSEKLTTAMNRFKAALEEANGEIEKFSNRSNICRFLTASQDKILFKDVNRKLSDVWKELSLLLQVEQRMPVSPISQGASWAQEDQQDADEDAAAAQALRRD

Compound	activity at 20 µM (THP-1-HMGB1-Lucia cells)	binding in SPR [1]
CN1CCc2cccc3c2[C@@H]1Cc1ccc(O)c(O)c1-3 [S62, (6aS)-6-methyl-5,6,6a,7-tetrahydro-4H-dibenzo[de,g]quinoline-10,11-diol]	7.1%	
CN1CCc2cccc3c4c(cc1c23)C=CC(=O)C4=O [Ox-APO]		retained binding
